Experimental findings from patent US10106515B2, “1-(cyclopent-2-en-1-yl)-3-(2-hydroxy-3-(arylsulfonyl)phenyl)urea derivatives as CXCR2 inhibitors” (GLAXOSMITHKLINE INTELLECTUAL PROPERTY DEVELOPMENT LIMITED, priority 2014, dated 2018) are described below.

Where a name gives a salt, the structure may show the parent alone. Read-outs that look alike come from different tables or passages of the source.

The test system of experiment [1] is upregulation of CD11b in GROα stimulated neutrophils in human whole blood. Description: Human whole blood assay (CD11b upregulation). Type of experiment: cell-based. The conditions noted are these: Neutrophil, inhibition of CD11b upregulation, GROα 33 nM final, flow cytometry, read-out: pIC50 (human whole blood assay) (converted). As to the method: The whole blood assay tested the compounds' ability to inhibit the upregulation of CD11b in GROα stimulated neutrophils in human whole blood.
Blood was withdrawn by venipuncture from consented adults and poured into a Sterilin tube containing an anti-coagulant Heparin (10 uL/mL of blood). All the test compounds were dissolved in DMSO to 4 mM and serial diluted across the plate, 1 in 3 to provide 10 point dose response curves. The compounds were then diluted 100 fold in -PBS [Phosphate buffered saline (without Calcium Chloride and Magnesium Chloride)] after which, 1 uL was dispensed in 96 U bottom Costar plates using an FX.
10 uL of blood was transferred to the compound plate using a multi-channel pipette, gently tapped and incubated for 15 minutes, at 37° C. After 15 minutes, the stimulant GROα was diluted to 100 nM in 0.1% BSA (Albumin Bovine Serum)-PBS and 5 uL is dispensed across the whole plate for a final concentration of 33 nM. The plate was gently tapped and incubated further for 15 minutes at 37° C. The plate was placed on ice for 1 minute before addition of 10 uL of an antibody cocktail consisting of CD11b-FITC (40 ug/mL) purchased from BioLegend (address: Cambridge Bioscience, Munro House, Trafalgar Way, Bar Hill, Cambridge, UK) and CD16-PE purchased from BD Pharmingen (address: The Danby Building, Edmung Halley Road, Oxford Science Park, Oxford, UK) (stock concentration 100 tests, 2 mL stock volume is diluted 1 in 5). The plate was placed on ice for 1 hour in the dark. The cells were then fixed using 200 uL/well of 1×FACS (Flow Activated Cell Sorting) Lyse solution (Becton and Dickinson-BD) and on ice for 20 minutes in the dark. The plate was centrifuged at 1600 rpm for 5 minutes and re-suspended with 200 uL of ice cold PBS. This step was repeated twice and on the final step the plate was re-suspended with 50 uL of ice cold -PBS for flow Cytometric analysis.
Samples were run on a Becton and Dickinson (BD)-Acurri C6 Flow Cytometer using a HyperCyt sampling apparatus (IntelliCyt) with a flow rate 2 uL/sec. CD11b upregulation is monitored in neutrophils and identified using a combination of both side scatter and CD16 expression.

The target in a further experiment is T1, recombinant human CXCR2 (Homo sapiens, UniProt P25025).
T1 construct: TEV protease site; Gal4-VP16 transcription factor
T1 sequence (P25025 1-360): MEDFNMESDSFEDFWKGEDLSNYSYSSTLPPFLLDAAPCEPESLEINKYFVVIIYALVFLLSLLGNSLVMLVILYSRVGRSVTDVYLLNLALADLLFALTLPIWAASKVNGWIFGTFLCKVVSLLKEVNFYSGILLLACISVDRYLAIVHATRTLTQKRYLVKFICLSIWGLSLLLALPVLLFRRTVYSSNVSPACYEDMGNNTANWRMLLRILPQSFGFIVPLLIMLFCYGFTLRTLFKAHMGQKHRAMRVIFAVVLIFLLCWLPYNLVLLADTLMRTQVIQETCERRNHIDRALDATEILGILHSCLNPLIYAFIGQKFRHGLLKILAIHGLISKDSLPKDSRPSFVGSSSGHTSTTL
Description: CXCR2 Tango assay. Type of experiment: cell-based. The settings on record: mean pIC50 of multiple test results; stimulated with 80 nM hCXCL1; reporter gene blue/green emission ratio; read-out: pIC50 (CXCR2 Tango assay) (converted). In short, it runs like this:
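Mean pIC50 comes from sigmoidal fits of the blue/green (460/530 nm) CCF4-AM ratio, normalized between hCXCL1-stimulated and DMSO controls. Compounds in 10-point dose response were incubated overnight at 37 °C with recombinant human CXCR2 Tango cells (~10,000/well) and 80 nM hCXCL1, with reporter read-out via arrestin-TEV release of Gal4-VP16.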
Background: A reporter such as luciferase makes a cellular process visible.

Turning to `CC(C)(C1COC1)S(=O)(=O)c1c(Cl)ccc(NC(=O)N[C@@H]2CCC=C2Cl)c1O` [Compound 5, (R)-1-(4-chloro-2-hydroxy-3-((2-(oxetan-3-yl)propan-2-yl)sulfonyl)phenyl)-3-(2-chlorocyclopent-2-en-1-yl)urea], the results for the IC50 (in experiment [1]; at recombinant human CXCR2) were 25.1 to 2510 nM and at most 10 nM, respectively.

`CC1=CCC[C@H]1NC(=O)Nc1ccc(Cl)c(S(=O)(=O)C2(C)CCOC2)c1O` (stereo partly drawn) [Compound 68, 1-(4-chloro-2-hydroxy-3-((3-methyltetrahydro-furan-3-yl)sulfonyl)phenyl)-3-((R)-2-methylcyclopent-2-en-1-yl)urea]: the IC50 is 25.1 to 2510 nM in experiment [1] (Homo sapiens) and at most 10 nM on recombinant human CXCR2.

For the molecule `CC1=CCC[C@H]1NC(=O)Nc1ccc(Cl)c(S(=O)(=O)C2(C)CCCOC2)c1O` (stereo partly drawn) [Compound 66, 1-(4-chloro-2-hydroxy-3-((3-methyltetrahydro-2H-pyran-3-yl)sulfonyl)phenyl)-3-((R)-2-methylcyclopent-2-en-1-yl)urea], the IC50 in experiment [1] was 25.1 to 2510 nM; at recombinant human CXCR2, at most 10 nM.

On to `[2H]C([2H])([2H])C1(S(=O)(=O)c2c(Cl)ccc(NC(=O)N[C@@H]3CCC=C3Cl)c2O)CCOCC1` [Compound 41], for which the IC50 was 25.1 to 2510 nM in experiment [1] and at most 1 nM on recombinant human CXCR2.

With `CC1=CCC[C@H]1NC(=O)Nc1ccc(Cl)c(S(=O)(=O)C(C)(C)C2CCOC2)c1O` (stereo partly drawn) [Compound 59, 1-(4-chloro-2-hydroxy-3-((2-(tetrahydrofuran-3-yl)propan-2-yl)sulfonyl)phenyl)-3-((R)-2-methylcyclopent-2-en-1-yl)urea], the figures for the IC50 (in experiment [1]; at recombinant human CXCR2) were 25.1 to 2510 nM and at most 1 nM, respectively.

Take `CC(C)(C)S(=O)(=O)c1c(C#N)ccc(NC(=O)N[C@@H]2CCC=C2Cl)c1O` [Compound 94, (R)-1-(3-(tert-butylsulfonyl)-4-cyano-2-hydroxyphenyl)-3-(2-chlorocyclopent-2-en-1-yl)urea]: the IC50 in experiment [1] was 25.1 to 2510 nM; on recombinant human CXCR2, at most 1 nM.

Consider `CO[C@H]1C[C@@H](S(=O)(=O)c2c(Cl)ccc(NC(=O)N[C@@H]3CCC=C3C)c2O)C1` [Compound 146, 1-(4-chloro-2-hydroxy-3-((cis-3-methoxycyclobutyl)sulfonyl)phenyl)-3-((R)-2-methylcyclopent-2-en-1-yl)urea], for which the results for the IC50 (in experiment [1]; at recombinant human CXCR2) were 25.1 to 2510 nM and at most 1 nM, respectively.

As to `CC1=CCC[C@H]1NC(=O)Nc1ccc(Cl)c(S(=O)(=O)C(C)(C)C)c1O` [Compound 57], the IC50 in experiment [1] is 25.1 to 2510 nM; on recombinant human CXCR2, at most 1 nM.

Regarding `CC1=CCC[C@H]1NC(=O)Nc1ccc(Cl)c(S(=O)(=O)N2CCN3CCC[C@@]3(C)C2)c1O` [Compound 93, 1-(4-chloro-2-hydroxy-3-(((S)-8a-methylhexahydro-pyrrolo[1,2-a]pyrazin-2(1H)-yl)sulfonyl)phenyl)-3-((R)-2-methylcyclopent-2-en-1-yl)urea, trifluoroacetic acid salt], the IC50 was 25.1 to 2510 nM in experiment [1] and at most 10 nM at recombinant human CXCR2.

Consider `CC1=CCC[C@H]1NC(=O)Nc1ccc(Cl)c(S(=O)(=O)C2CCCOC2)c1O` (stereo partly drawn) [Compound 78, 1-(4-chloro-2-hydroxy-3-((tetrahydro-2H-pyran-3-yl)sulfonyl)phenyl)-3-((R)-2-methylcyclopent-2-en-1-yl)urea], for which the figures for the IC50 (in experiment [1]; at recombinant human CXCR2) were 25.1 to 2510 nM and at most 10 nM, respectively.

On to `COCC(C)S(=O)(=O)c1c(Cl)ccc(NC(=O)N[C@@H]2CCC=C2C)c1O` (stereo partly drawn) [Compound 158, 1-(4-chloro-2-hydroxy-3-((1-methoxypropan-2-yl)sulfonyl)phenyl)-3-((R)-2-methylcyclopent-2-en-1-yl)urea], for which the IC50 in experiment [1] was 25.1 to 2510 nM; on recombinant human CXCR2, at most 10 nM.

As for `CC1=CCCC1NC(=O)Nc1ccc(Cl)c(S(=O)(=O)N2CCC(F)(F)C2)c1O` (centres unmarked) [Compound 114, 1-(4-chloro-3-((3,3-difluoropyrrolidin-1-yl)sulfonyl)-2-hydroxyphenyl)-3-(2-methylcyclopent-2-en-1-yl)urea, trifluoroacetic acid salt], the results for the IC50 (in experiment [1]; on recombinant human CXCR2) were 25.1 to 2510 nM and at most 10 nM, respectively.

In the case of `CC1=CCCC1NC(=O)Nc1ccc(Cl)c(S(=O)(=O)N2CC(F)C2)c1O` (centres unmarked) [Compound 112, 1-(4-chloro-3-((3-fluoroazetidin-1-yl)sulfonyl)-2-hydroxyphenyl)-3-(2-methylcyclopent-2-en-1-yl)urea], the values for the IC50 (in experiment [1]; at recombinant human CXCR2) were 25.1 to 2510 nM and at most 10 nM, respectively.

On to `[2H]C([2H])([2H])C1(S(=O)(=O)c2c(Cl)ccc(NC(=O)N[C@@H]3CCC=C3C)c2O)CCOCC1` [Compound 70], for which the IC50 in experiment [1] was 25.1 to 2510 nM; at recombinant human CXCR2 it was at most 1 nM.

On to `CC1=CCC[C@H]1NC(=O)Nc1ccc(Cl)c(S(=O)(=O)[C@H]2C[C@H](N(C)C)C2)c1O` [Compound 193, 1-(4-chloro-3-((trans-3-(dimethylamino)cyclobutyl)sulfonyl)-2-hydroxyphenyl)-3-((R)-2-methylcyclopent-2-en-1-yl)urea], for which the values for the IC50 (in experiment [1]; on recombinant human CXCR2) were 25.1 to 2510 nM and at most 1 nM, respectively.

Take `CC1=CCC[C@H]1NC(=O)Nc1ccc(Cl)c(S(=O)(=O)[C@H]2C[C@H](N3CCCC3)C2)c1O` [Compound 192, 1-(4-chloro-2-hydroxy-3-((trans-3-(pyrrolidin-1-yl)cyclobutyl)sulfonyl)phenyl)-3-((R)-2-methylcyclopent-2-en-1-yl)urea]: the results for the IC50 (in experiment [1] (Homo sapiens); at recombinant human CXCR2) were 25.1 to 2510 nM and at most 1 nM, respectively.

Take `CC1=CCC[C@H]1NC(=O)Nc1ccc(Cl)c(S(=O)(=O)[C@H]2C[C@H](N3CC[C@@H](F)C3)C2)c1O` [Compound 49, trans-1-(4-chloro-3-((3-((R)-3-fluoropyrrolidin-1-yl)cyclobutyl)sulfonyl)-2-hydroxyphenyl)-3-((R)-2-methylcyclopent-2-en-1-yl)urea, trifluoroacetic acid salt]: the IC50 in experiment [1] is 25.1 to 2510 nM; at recombinant human CXCR2 it was at most 1 nM.

As for `CO[C@@H]1CCC[C@H]1S(=O)(=O)c1c(Cl)ccc(NC(=O)N[C@@H]2CCC=C2C)c1O` (racemic) [Compound 144, (±)trans-1-(4-chloro-2-hydroxy-3-((2-methoxycyclopent-yl)sulfonyl)phenyl)-3-((R)-2-methylcyclopent-2-en-1-yl)urea, trifluoroacetic acid salt], the IC50 in experiment [1] was 25.1 to 2510 nM; at recombinant human CXCR2, at most 1 nM.

For the molecule `CC1=CCC[C@H]1NC(=O)Nc1ccc(Cl)c(S(=O)(=O)C(C)c2ncccn2)c1O` (stereo partly drawn) [Compound 27, 1-(4-chloro-2-hydroxy-3-((1-(pyrimidin-2-yl)ethyl)sulfonyl)phenyl)-3-((R)-2-methylcyclopent-2-en-1-yl)urea], the results for the IC50 (in experiment [1]; at recombinant human CXCR2) were 25.1 to 2510 nM and at most 10 nM, respectively.

`O=C(Nc1ccc(Cl)c(S(=O)(=O)[C@H]2C[C@@H](O)C2)c1O)NC1CCC=C1Cl` (stereo partly drawn) [Compound 165, 1-(4-chloro-2-hydroxy-3-((cis-3-hydroxycyclobutyl)sulfonyl)phenyl)-3-(2-chlorocyclopent-2-en-1-yl)urea]: the IC50 in experiment [1] is 25.1 to 2510 nM; at recombinant human CXCR2, at most 10 nM.

`CC1=CCCC1NC(=O)Nc1ccc(Cl)c(S(=O)(=O)N2CCN(C)CC2)c1O` (centres unmarked) [Compound 142, 1-(4-chloro-2-hydroxy-3-((4-methylpiperazin-1-yl)sulfonyl)phenyl)-3-(2-methylcyclopent-2-en-1-yl)urea, trifluoroacetic acid salt]: the values for the IC50 (in experiment [1]; at recombinant human CXCR2) were 25.1 to 2510 nM and at most 10 nM, respectively.

For `O=C(Nc1ccc(Cl)c(S(=O)(=O)[C@H]2C[C@H](N3CCCC3)C2)c1O)N[C@@H]1CCC=C1Cl` [Compound 185, 1-(4-chloro-2-hydroxy-3-((trans-3-(pyrrolidin-1-yl)cyclobutyl)sul-fonyl)phenyl)-3-((R)-2-chlorocyclopent-2-en-1-yl)urea, trifluoroacetic acid salt], the figures for the IC50 (in experiment [1]; on recombinant human CXCR2) were 25.1 to 2510 nM and at most 10 nM, respectively.
